Literature values as cited in US8017348B1, “Assay for Parkinson's Disease therapeutics” (Elan Pharma International Limited, priority 2005, dated 2011).

What was measured:
Details in all cases: at higher concentrations (25-50 uM); cited from earlier work
aldehyde dehydrogenase = test system: aldehyde dehydrogenase
[1] = test system: cAMP dependent protein kinase
3-PI-dependent kinase 1 = target: T1, 3-PI-dependent kinase 1 (Homo sapiens, UniProt O15530)
T1 sequence (O15530 1-556): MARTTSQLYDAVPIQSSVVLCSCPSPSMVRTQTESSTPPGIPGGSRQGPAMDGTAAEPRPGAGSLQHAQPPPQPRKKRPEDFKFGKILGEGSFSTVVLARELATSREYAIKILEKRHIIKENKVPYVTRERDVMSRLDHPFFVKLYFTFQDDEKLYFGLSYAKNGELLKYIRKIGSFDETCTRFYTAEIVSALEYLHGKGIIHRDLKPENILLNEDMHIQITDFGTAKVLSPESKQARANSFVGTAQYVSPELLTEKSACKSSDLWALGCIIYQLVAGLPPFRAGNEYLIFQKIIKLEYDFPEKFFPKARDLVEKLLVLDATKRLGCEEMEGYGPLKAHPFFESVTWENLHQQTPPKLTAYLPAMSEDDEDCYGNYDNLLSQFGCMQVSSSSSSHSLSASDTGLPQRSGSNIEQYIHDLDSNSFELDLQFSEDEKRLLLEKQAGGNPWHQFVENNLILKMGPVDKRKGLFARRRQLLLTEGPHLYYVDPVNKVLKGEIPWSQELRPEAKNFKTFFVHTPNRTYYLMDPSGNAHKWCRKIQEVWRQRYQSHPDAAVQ

Cc1ccc(S(=O)(=O)N[C@@H](Cc2ccccc2)C(=O)CCl)cc1 [TPCK]
inhibit: inhibition of aldehyde dehydrogenase (aldehyde dehydrogenase) | inhibition of cAMP dependent protein kinase [1] | inhibition of 3-PI-dependent kinase 1 (3-PI-dependent kinase 1)
